Reference: ChEMBL document CHEMBL6087474, “Discovery of an Efficacious RET PROTAC Degrader with Enhanced Antiproliferative Activity against Resistant Cancer Cells Harboring RET Solvent-Front Mutations” (J Med Chem, 2025)
pIC50: −log10 of the molar value. Activity calls are given as the source filed them. The rule behind the calls is not given here.

What was measured:
[1] = Bioavailability in male ICR mouse at 10 mg/kg, ip measured after 24 hrs by LC-MS/MS analysis; type: ADME, organism-based; details: in vivo
[2] = Induction of apoptosis in mouse BaF3 cells stably expressing KIF5B-RET-G810C mutant assessed as late apoptotic cells at 100 nM measured after 48 hrs by Annexin V-FITC/7-AAD staining based flow cytometric analysis (reference value: 1.96 %); type: functional
[3] = Effect on Shc protein level in mouse BaF3 cells stably expressing KIF5B-RET-G810C mutant assessed as fold change at 33.3 nM measured after 6 hrs by Western blot analysis (reference value: 1); type: functional
BaF3 [4] = experiment: Antiproliferative activity against mouse BaF3 cells stably expressing KIF5B-RET-V804L mutant incubated for 72 hrs by CCK-8 assay; type: functional, cell-based; details: BaF3, 72 h
[5] = Induction of apoptosis in mouse BaF3 cells stably expressing wildtype KIF5B-RET fusion protein assessed as late apoptotic cells at 300 nM measured after 48 hrs by Annexin V-FITC/7-AAD staining based flow cytometric analysis (reference value: 1.03 %); type: functional
[6] = PROTAC activity at CRBN/KIF5B-RET-G810C mutant (unknown origin) expressed in mouse BaF3 cells assessed as induction of RET degradation measured after 6 hrs by Western blot analysis; type: cell-based; details: BaF3, 6 h
[7] = Effect on RET protein level in mouse BaF3 cells stably expressing KIF5B-RET-G810C mutant assessed as fold change at 33.3 nM measured after 6 hrs by Western blot analysis (reference value: 1); type: functional
[8] = Effect on Shc protein level in mouse BaF3 cells stably expressing wildtype KIF5B-RET assessed as fold change at 300 nM measured after 6 hrs by Western blot analysis; type: functional
BaF3 [9] = experiment: PROTAC activity at CRBN/CK1alpha in mouse BaF3 cells overexpressing KIF5B-RET assessed as induction of […] at 10 to 1000 nM incubated for 6 hrs by Western blot analysis; type: cell-based; details: dose 10-1000 nM
[10] = AUC in male ICR mouse at 10 mg/kg, ip measured after 24 hrs by LC-MS/MS analysis; type: ADME, organism-based; details: in vivo
[11] = Induction of apoptosis in mouse BaF3 cells stably expressing KIF5B-RET-G810C mutant assessed as early apoptotic cells at 33.3 nM measured after 48 hrs by Annexin V-FITC/7-AAD staining based flow cytometric analysis (reference value: 8.57 %); type: functional
[12] = PROTAC activity at CRBN/KIF5B-RET-V804M mutant (unknown origin) expressed in mouse BaF3 cells assessed as induction of RET degradation measured after 6 hrs by Western blot analysis; type: cell-based; details: BaF3, 6 h
[13] = Induction of apoptosis in mouse BaF3 cells stably expressing wildtype KIF5B-RET fusion protein assessed as viable cells at 100 nM measured after 48 hrs by Annexin V-FITC/7-AAD staining based flow cytometric analysis (reference value: 86.65 %); type: functional; details: read-out: Activity
[14] = target: Protein cereblon/Proto-oncogene tyrosine-protein kinase receptor Ret/Kinesin-1 heavy chain (Homo sapiens) (UniProt P07949+P33176+Q96SW2); experiment: PROTAC activity at CRBN/KIF5B-RET in human LC-2-ad cells assessed as induction of RET degradation at 11.1 nM measured after 6 hrs by Western blotting analysis relative to control; type: cell-based
Protein cereblon/Proto-oncogene tyrosine-protein kinase receptor Ret/Kinesin-1 heavy chain (Homo sapiens), sequence (P07949 whole entry, looked up): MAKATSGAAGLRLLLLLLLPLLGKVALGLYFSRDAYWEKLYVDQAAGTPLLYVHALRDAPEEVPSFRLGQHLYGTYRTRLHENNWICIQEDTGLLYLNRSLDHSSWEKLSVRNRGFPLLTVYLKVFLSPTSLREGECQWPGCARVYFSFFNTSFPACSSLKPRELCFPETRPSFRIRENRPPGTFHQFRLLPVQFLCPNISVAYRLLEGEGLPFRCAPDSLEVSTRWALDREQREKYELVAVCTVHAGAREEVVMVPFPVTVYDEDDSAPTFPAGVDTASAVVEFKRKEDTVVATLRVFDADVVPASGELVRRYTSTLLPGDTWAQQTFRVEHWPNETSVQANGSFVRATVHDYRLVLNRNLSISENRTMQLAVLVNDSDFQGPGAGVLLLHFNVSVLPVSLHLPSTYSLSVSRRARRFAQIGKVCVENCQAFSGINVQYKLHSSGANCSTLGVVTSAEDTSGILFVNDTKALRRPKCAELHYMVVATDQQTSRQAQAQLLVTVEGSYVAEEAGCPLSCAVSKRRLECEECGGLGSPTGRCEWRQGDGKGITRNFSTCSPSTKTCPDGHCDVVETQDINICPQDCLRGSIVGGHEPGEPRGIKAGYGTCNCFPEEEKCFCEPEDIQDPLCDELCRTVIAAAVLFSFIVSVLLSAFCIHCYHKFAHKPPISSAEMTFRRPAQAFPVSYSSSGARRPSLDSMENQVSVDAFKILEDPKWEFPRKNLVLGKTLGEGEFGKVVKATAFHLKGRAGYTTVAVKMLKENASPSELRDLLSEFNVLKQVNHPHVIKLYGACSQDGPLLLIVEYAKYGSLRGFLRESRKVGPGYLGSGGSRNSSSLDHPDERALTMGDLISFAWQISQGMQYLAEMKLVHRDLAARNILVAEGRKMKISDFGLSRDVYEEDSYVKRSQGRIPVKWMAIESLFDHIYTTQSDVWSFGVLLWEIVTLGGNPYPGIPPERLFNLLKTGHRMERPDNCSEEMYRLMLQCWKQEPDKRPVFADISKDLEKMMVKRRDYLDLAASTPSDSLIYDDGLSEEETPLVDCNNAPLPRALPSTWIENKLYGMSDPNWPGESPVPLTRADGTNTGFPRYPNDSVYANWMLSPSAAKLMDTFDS
Protein cereblon/Proto-oncogene tyrosine-protein kinase receptor Ret/Kinesin-1 heavy chain (Homo sapiens), sequence (P33176 whole entry, looked up): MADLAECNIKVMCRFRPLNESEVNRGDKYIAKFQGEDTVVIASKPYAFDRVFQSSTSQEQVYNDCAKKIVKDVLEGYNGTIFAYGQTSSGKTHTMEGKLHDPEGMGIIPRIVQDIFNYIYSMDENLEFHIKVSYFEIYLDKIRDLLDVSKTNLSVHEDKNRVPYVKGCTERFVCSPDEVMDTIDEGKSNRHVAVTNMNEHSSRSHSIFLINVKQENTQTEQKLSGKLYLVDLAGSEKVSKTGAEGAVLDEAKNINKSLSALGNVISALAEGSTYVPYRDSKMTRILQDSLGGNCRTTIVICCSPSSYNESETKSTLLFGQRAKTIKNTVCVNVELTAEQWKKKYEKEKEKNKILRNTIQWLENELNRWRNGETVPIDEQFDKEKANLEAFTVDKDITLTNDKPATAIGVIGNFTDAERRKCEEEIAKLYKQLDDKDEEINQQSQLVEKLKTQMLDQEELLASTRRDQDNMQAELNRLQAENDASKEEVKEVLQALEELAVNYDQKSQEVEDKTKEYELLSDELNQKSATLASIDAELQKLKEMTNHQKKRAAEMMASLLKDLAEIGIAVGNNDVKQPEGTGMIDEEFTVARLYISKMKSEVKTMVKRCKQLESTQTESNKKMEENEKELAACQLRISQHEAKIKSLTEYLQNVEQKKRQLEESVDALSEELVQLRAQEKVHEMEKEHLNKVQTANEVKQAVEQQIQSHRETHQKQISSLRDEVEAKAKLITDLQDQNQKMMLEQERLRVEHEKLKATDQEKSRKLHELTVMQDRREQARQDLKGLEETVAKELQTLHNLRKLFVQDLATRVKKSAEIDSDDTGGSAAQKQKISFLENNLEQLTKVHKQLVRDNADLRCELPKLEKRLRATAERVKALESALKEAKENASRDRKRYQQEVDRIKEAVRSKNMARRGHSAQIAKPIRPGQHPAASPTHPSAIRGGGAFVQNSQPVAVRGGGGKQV
Protein cereblon/Proto-oncogene tyrosine-protein kinase receptor Ret/Kinesin-1 heavy chain (Homo sapiens), sequence (Q96SW2 whole entry, looked up): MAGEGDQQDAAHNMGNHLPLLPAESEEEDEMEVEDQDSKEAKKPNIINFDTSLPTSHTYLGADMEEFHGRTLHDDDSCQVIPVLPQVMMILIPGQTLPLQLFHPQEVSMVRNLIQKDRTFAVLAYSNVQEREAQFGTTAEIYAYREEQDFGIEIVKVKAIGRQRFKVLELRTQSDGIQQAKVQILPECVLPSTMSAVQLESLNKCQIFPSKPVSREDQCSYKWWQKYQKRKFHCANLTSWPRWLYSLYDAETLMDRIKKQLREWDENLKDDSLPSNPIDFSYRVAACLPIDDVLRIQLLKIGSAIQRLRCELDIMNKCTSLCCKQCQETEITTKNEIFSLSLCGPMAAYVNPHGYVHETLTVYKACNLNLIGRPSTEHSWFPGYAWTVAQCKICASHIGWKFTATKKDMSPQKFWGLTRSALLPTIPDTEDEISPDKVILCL

[15] = Induction of apoptosis in mouse BaF3 cells stably expressing KIF5B-RET-G810C mutant assessed as necrotic cells at 900 nM measured after 48 hrs by Annexin V-FITC/7-AAD staining based flow cytometric analysis (reference value: 2.89 %); type: functional
[16] = Induction of apoptosis in mouse BaF3 cells stably expressing wildtype KIF5B-RET fusion protein assessed as early apoptotic cells at 100 nM measured after 48 hrs by Annexin V-FITC/7-AAD staining based flow cytometric analysis (reference value: 9.92 %); type: functional
[17] = Effect on Shc protein level in mouse BaF3 cells stably expressing KIF5B-RET-G810R mutant assessed as fold change at 300 nM measured after 6 hrs by Western blot analysis (reference value: 1); type: functional
[18] = Effect on Shc protein level in mouse BaF3 cells stably expressing KIF5B-RET-G810R mutant assessed as fold change at 33.3 nM measured after 6 hrs by Western blot analysis (reference value: 1); type: functional
[19] = Effect on Shc protein level in mouse BaF3 cells stably expressing KIF5B-RET-V804M mutant assessed as fold change at 300 nM measured after 6 hrs by Western blot analysis (reference value: 1); type: functional
BaF3 [20] = experiment: Antiproliferative activity against mouse BaF3 cells stably expressing KIF5B-RET-G810S mutant incubated for 72 hrs by CCK-8 assay; type: functional, cell-based; details: BaF3, 72 h
[21] = Effect on RET protein level in mouse BaF3 cells stably expressing KIF5B-RET-G810C mutant assessed as fold change at 300 nM measured after 6 hrs by Western blot analysis (reference value: 1); type: functional
[22] = Induction of apoptosis in mouse BaF3 cells stably expressing wildtype KIF5B-RET fusion protein assessed as early apoptotic cells at 300 nM measured after 48 hrs by Annexin V-FITC/7-AAD staining based flow cytometric analysis (reference value: 9.92 %); type: functional
[23] = Effect on RET protein level in mouse BaF3 cells stably expressing KIF5B-RET-V804M mutant assessed as fold change at 100 nM measured after 6 hrs by Western blot analysis (reference value: 1); type: functional
BaF3 [24] = experiment: PROTAC activity at CRBN/KIF5B-RET-G810R mutant (unknown origin) expressed in mouse BaF3 cells assessed as induction of RET degradation at 300 nM measured after 6 hrs by Western blot analysis relative to control; type: cell-based; details: Homo sapiens
[25] = target: Protein cereblon/Eukaryotic peptide chain release factor GTP-binding subunit ERF3A (Mus musculus) (UniProt Q8C7D2+Q8R050); experiment: PROTAC activity at CRBN/GSPT1 in mouse BaF3 cells overexpressing KIF5B-RET assessed as induction of GSPT1 degradation at 10 to 1000 nM incubated for 6 hrs by Western blot analysis; type: cell-based; details: dose 10-1000 nM
Protein cereblon/Eukaryotic peptide chain release factor GTP-binding subunit ERF3A (Mus musculus), sequence (Q8C7D2 whole entry, looked up): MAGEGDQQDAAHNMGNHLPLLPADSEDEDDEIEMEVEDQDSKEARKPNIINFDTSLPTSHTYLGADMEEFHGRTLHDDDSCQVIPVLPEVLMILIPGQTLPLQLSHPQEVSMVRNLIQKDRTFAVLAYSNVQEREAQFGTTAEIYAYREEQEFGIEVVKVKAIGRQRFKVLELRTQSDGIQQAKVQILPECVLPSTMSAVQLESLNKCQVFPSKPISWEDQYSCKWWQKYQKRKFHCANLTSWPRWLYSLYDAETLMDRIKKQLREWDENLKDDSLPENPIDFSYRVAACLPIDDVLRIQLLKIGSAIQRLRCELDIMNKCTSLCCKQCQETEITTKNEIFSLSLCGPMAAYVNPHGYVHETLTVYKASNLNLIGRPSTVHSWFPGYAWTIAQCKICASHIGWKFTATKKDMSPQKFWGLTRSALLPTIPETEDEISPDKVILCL
Protein cereblon/Eukaryotic peptide chain release factor GTP-binding subunit ERF3A (Mus musculus), sequence (Q8R050 whole entry, looked up): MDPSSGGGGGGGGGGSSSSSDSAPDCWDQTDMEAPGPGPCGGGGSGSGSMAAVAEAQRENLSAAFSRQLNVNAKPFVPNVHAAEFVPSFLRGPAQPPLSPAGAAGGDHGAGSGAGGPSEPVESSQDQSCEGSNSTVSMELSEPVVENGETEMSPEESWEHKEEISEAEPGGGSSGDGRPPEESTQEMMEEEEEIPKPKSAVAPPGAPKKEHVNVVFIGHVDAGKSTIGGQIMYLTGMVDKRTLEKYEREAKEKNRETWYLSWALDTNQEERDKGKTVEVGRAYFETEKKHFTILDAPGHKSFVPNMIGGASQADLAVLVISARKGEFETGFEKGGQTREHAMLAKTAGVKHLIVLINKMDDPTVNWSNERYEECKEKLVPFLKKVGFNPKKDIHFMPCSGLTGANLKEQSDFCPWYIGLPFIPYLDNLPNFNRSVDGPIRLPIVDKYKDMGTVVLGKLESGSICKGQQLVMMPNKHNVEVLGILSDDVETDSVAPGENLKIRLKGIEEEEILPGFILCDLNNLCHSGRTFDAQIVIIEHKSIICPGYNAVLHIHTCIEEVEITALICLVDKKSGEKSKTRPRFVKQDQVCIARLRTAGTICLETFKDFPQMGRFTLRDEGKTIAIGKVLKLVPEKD

[26] = Induction of apoptosis in mouse BaF3 cells stably expressing KIF5B-RET-G810C mutant assessed as late apoptotic cells at 33.3 nM measured after 48 hrs by Annexin V-FITC/7-AAD staining based flow cytometric analysis (reference value: 1.96 %); type: functional
[27] = target: Proto-oncogene tyrosine-protein kinase receptor Ret (Homo sapiens, UniProt P07949); experiment: Inhibition of wildtype RET (unknown origin) in presence of ATP by FRET-based Z'-Lyte assay
Proto-oncogene tyrosine-protein kinase receptor Ret, sequence (P07949 whole entry): as the sequence (P07949 whole entry, looked up) above

[28] = Cmax in male ICR mouse at 10 mg/kg, ip measured after 24 hrs by LC-MS/MS analysis; type: ADME, organism-based; details: in vivo
BaF3 [29] = experiment: Antiproliferative activity against mouse BaF3 cells stably expressing CCDC6-RET incubated for 72 hrs by CCK-8 assay; type: functional, cell-based; details: BaF3, 72 h
BaF3 [30] = experiment: Inhibition of RET (unknown origin) phosphorylation in mouse BaF3 cells stably expressing KIF5B-RET-G810R mutant at 333.3 to 3000 nM measured after 6 hrs by Western blot analysis; type: cell-based; details: Homo sapiens, dose 333.3-3000 nM

Compound: COc1ccc(CN2C3CC2CN(c2ccc(-c4cc(-c5cnn(C6CCN(CCCCCC#Cc7cccc8c7CN(C7CCC(=O)NC7=O)C8=O)CC6)c5)cn5ncc(C#N)c45)cn2)C3)cn1 (stereo not given)
- bioavailability [1]: 17.3%
- Activity [2]: 2.61%
- fold change (FC) [3]: 1
- pIC50 (BaF3 [4]): 7.30
- Activity [5]: 1%
- DC50 [6]: 73.8 nM
- fold change (FC) [7]: 0.6
- fold change (FC) [8]: 1
- Activity (BaF3 [9]): inactive
- AUC at 24 h [10]: 680 ng·h/mL
- Activity [11]: 10.15%
- DC50 [12]: 17.2 nM
- viability at 0.1 µM [13]: 64.9%
- Activity [14]: 61.6%
- Activity [15]: 1.26%
- Activity [16]: 33.58%
- fold change (FC) [17]: 0.9
- fold change (FC) [18]: 0.9
- fold change (FC) [19]: 1
- pIC50 (BaF3 [20]): 7.05
- fold change (FC) [21]: 0.3
- Activity [22]: 48.33%
- fold change (FC) [23]: 0.1
- Activity (BaF3 [24]): 43%
- Activity [25]: inactive
- Activity [26]: 1.62%
- pIC50 [27]: 8.24
- Cmax [28]: 68 ng/mL
- pIC50 (BaF3 [29]): 8.00
- inhibition (BaF3 [30]): Active
